Consider 36 compounds from ChEMBL document CHEMBL4483862, “Open-source discovery of chemical leads for next-generation chemoprotective antimalarials” (2018).

The structures appear in SMILES notation. Bounds are passed on as bounds.

This assay has as its system Plasmodium berghei. The assay is described as follows: Luciferase/luciferin-expressing antifolate-resistant parasites were used to infect a culture of HepG2 cells that were pre-incubated with compounds. Infected hepatocytes emit light due to the luciferase reaction. Assay results are presented as the percent inhibition of light emission compared to control. […]. Format: functional. Conditions: sporozoite; for IC90: read-out: LUCIFERASE INFECTION ASSAY - IC90.

Where [1] appears, read: read-out: LUCIFERASE INFECTION ASSAY - IC50.

In the case of `O=C(CCCNC(=O)c1ccsc1)NNC(=O)c1ccccc1O`, the 90% effect concentration (IC90) was greater than 10 µM. Moreover, the IC50 (PBLUC_HILL_SLOPE 9.95, PBLUC_R_SQUARED 0.0276, read-out: LUCIFERASE INFECTION ASSAY - IC50) is greater than 10 µM.
On to `CN1/C(=C/C=C/c2ccc3ccccc3[n+]2C)C=Cc2ccccc21`, for which the IC90 worked out at 2.78 µM. In addition, under setting [1], the IC50 worked out at 2.47 µM.
The corresponding values for `Cc1cc(C)c(O)c(/C=N/NC(=S)NC(C)(C)C)c1` are greater than 11.8 µM and greater than 11.8 µM.
As for `CCn1c(-c2cc(C(=O)c3ccccc3O)c[nH]2)nc2ccccc21`, the IC90 is greater than 10 µM. For the same compound, the IC50 (HEPG2TOX_HILL_SLOPE 7.78, HEPG2TOX_R_SQUARED 0.356, PBLUC_HILL_SLOPE 1.9, PBLUC_R_SQUARED 0.373, read-out: LUCIFERASE INFECTION ASSAY - IC50) was 6.07 µM.
As for `O=C(CCN1c2ccccc2Sc2ccccc21)Nc1ccc2ccccc2c1`, the IC90 is greater than 10 µM. Also, the IC50 under setting [1] was greater than 10 µM.
As to `CCOC(=O)c1c(C)noc1/C(C)=N/Nc1cc(C(F)(F)F)cc(C(F)(F)F)c1`, the IC90 was greater than 7.8 µM. Besides, the IC50 (FFLUC_HILL_SLOPE 2.91, FFLUC_R_SQUARED 0.779, PBLUC_HILL_SLOPE 12.4, PBLUC_R_SQUARED 0.288, read-out: LUCIFERASE INFECTION ASSAY - IC50) is greater than 7.8 µM.
As to `O=C(Nc1ccccc1)ON=C1CC2CCCC(C1)N2Cc1ccccc1`, the IC90 is greater than 9.08 µM. Besides, the IC50 (PBLUC_HILL_SLOPE 1.59, PBLUC_R_SQUARED 0.239, read-out: LUCIFERASE INFECTION ASSAY - IC50) was greater than 9.08 µM.
For the compound `CC(OC(=O)c1cc([N+](=O)[O-])ccc1N(C)C)C(=O)Nc1ccc(Cl)cn1` (stereo unspecified), the IC90 is 1.83 µM. Also, the IC50 (HEPG2TOX_HILL_SLOPE 1.79, HEPG2TOX_R_SQUARED 0.979, PBLUC_HILL_SLOPE 1.96, PBLUC_R_SQUARED 0.845, read-out: LUCIFERASE INFECTION ASSAY - IC50) worked out at 0.596 µM.
For `COc1cc(-c2cnc3c(Nc4cccc(OC(F)(F)C(F)F)c4)nccn23)cc(OC)c1OC`, the IC90 was 5.38 µM. Further, where the note is “HEPG2TOX_HILL_SLOPE 8.4, HEPG2TOX_R_SQUARED 0.356, PBLUC_HILL_SLOPE 3.39, PBLUC_R_SQUARED 0.397, read-out: LUCIFERASE INFECTION ASSAY - IC50”, the IC50 worked out at 2.81 µM.
In the case of `N#C/C(=N\Nc1cccc(C(F)(F)F)c1)S(=O)(=O)c1ccsc1`, the IC90 is greater than 9.18 µM. In addition, the IC50 (HEPG2TOX_HILL_SLOPE 2.11, HEPG2TOX_R_SQUARED 0.943, PBLUC_HILL_SLOPE 4.11, PBLUC_R_SQUARED 0.604, read-out: LUCIFERASE INFECTION ASSAY - IC50) stood at 6.42 µM.
For `CC(C)NC(=O)Nc1ccc(OCc2ncc(C(F)(F)F)cc2Cl)cc1`, the IC90 is greater than 8.51 µM. For the same compound, the IC50 (FFLUC_HILL_SLOPE 8.07, FFLUC_R_SQUARED 0.113, HEPG2TOX_HILL_SLOPE 6.87, HEPG2TOX_R_SQUARED 0.428, PBLUC_HILL_SLOPE 0.555, PBLUC_R_SQUARED 0.618, read-out: LUCIFERASE INFECTION ASSAY - IC50) came out at 1.56 µM.
As to `O=C(NCCO)c1cccc(-c2ccc3ncc(-c4cccc(OC(F)(F)F)c4)n3n2)c1`, the IC90 worked out at 9.96 µM. Also, the IC50 (PBLUC_HILL_SLOPE 3.2, PBLUC_R_SQUARED 0.416, read-out: LUCIFERASE INFECTION ASSAY - IC50) was determined as 5.01 µM.
As for `C=CCn1c[n+](C2=C(NS(=O)(=O)c3ccc(C)cc3)C(=O)c3ccccc3C2=O)c2ccccc21`, the IC90 is 1.26 µM. Also, the IC50 (PBLUC_HILL_SLOPE 2.18, PBLUC_R_SQUARED 0.79, read-out: LUCIFERASE INFECTION ASSAY - IC50) was 0.462 µM.
In the case of `C=CCn1c(-c2ccccc2)cs/c1=N\Nc1ccc([N+](=O)[O-])cc1`, the IC90 is greater than 10 µM. Also, the IC50 (FFLUC_HILL_SLOPE 10.5, FFLUC_R_SQUARED 0.467, read-out: LUCIFERASE INFECTION ASSAY - IC50) is greater than 10 µM.
For `CSc1nc(Sc2nnc(-c3ccc(C(C)(C)C)cc3)[nH]2)cc(Sc2nnc(-c3ccc(C(C)(C)C)cc3)[nH]2)n1`, the IC90 was greater than 5.6 µM. Besides, under “PBLUC_HILL_SLOPE 11.3, PBLUC_R_SQUARED 0.117, read-out: LUCIFERASE INFECTION ASSAY - IC50”, the IC50 is 5.38 µM.
On to `O=S(=O)(c1ccccc1)N1[C@@H]2CC[C@@H](C2)[C@H]1c1nc2c(OCCC3CCCCC3)cccc2[nH]1`, for which the IC90 was greater than 10 µM. The IC50 (FFLUC_HILL_SLOPE 8.97, FFLUC_R_SQUARED 0.445, PBLUC_HILL_SLOPE 2.11, PBLUC_R_SQUARED 0.35, read-out: LUCIFERASE INFECTION ASSAY - IC50) worked out at 6.12 µM.
`N#Cc1ccc(S(=O)(=O)Nc2cc(C(F)(F)F)cc(C(F)(F)F)c2)c(Cl)c1`: the IC90 was found to be 5.49 µM. Besides, the IC50 (FFLUC_HILL_SLOPE 10.5, FFLUC_R_SQUARED 0.0508, HEPG2TOX_HILL_SLOPE 1.91, HEPG2TOX_R_SQUARED 0.922, PBLUC_HILL_SLOPE 2.28, PBLUC_R_SQUARED 0.661, read-out: LUCIFERASE INFECTION ASSAY - IC50) is 2.09 µM.
In the case of `CCOC(=O)c1c(NC(=O)C2Cc3ccccc3CN2S(=O)(=O)c2cccs2)sc2c1CCCC2` (stereo unspecified), the 90% effect concentration (IC90) was greater than 10 µM. Where the note is “HEPG2TOX_HILL_SLOPE 0.167, HEPG2TOX_R_SQUARED 0.0943, PBLUC_HILL_SLOPE 2.23, PBLUC_R_SQUARED 0.122, read-out: LUCIFERASE INFECTION ASSAY - IC50”, the IC50 was determined as 6.53 µM.
For the compound `O=C(Nc1ccccc1)OCc1cccnc1Sc1ccc(Cl)cc1`, the IC90 is greater than 8.9 µM. Moreover, under setting [1], the IC50 was greater than 8.9 µM.
For the compound `CCN(CC)c1ccc(NC(=O)c2[nH]nc3ccccc23)cc1S(=O)(=O)Nc1ccc(OC)cc1`, the IC90 is greater than 10 µM. Moreover, the IC50 (PBLUC_HILL_SLOPE 10.5, PBLUC_R_SQUARED 0.206, read-out: LUCIFERASE INFECTION ASSAY - IC50) amounted to 9.2 µM.
As for `CCN(CC)S(=O)(=O)c1ccc(OC(C)C)c(NC(=O)c2cc(C3CC3)nc3c2cnn3C(C)C)c1`, the IC90 is greater than 10 µM. Moreover, the IC50 (FFLUC_HILL_SLOPE 16.5, FFLUC_R_SQUARED 0.255, read-out: LUCIFERASE INFECTION ASSAY - IC50) is greater than 10 µM.
On to `CN(C)c1ncnc2scc(-c3ccc(Cl)cc3)c12`, for which the IC90 was greater than 11.4 µM. In addition, the IC50 under setting [1] worked out at 4.05 µM.
As to `O=S(=O)(c1ccc(Cl)c(NC(=S)N/N=C/c2ccc3ncccc3c2)c1)N1CCOCC1`, the 90% effect concentration (IC90) is greater than 10 µM. Further, under “PBLUC_HILL_SLOPE 2.75, PBLUC_R_SQUARED 0.637, read-out: LUCIFERASE INFECTION ASSAY - IC50”, the IC50 came to 5.55 µM.
In the case of `C=CCNC(=O)C(C)Sc1nnc(-c2ccc(C)cc2)c(-c2ccc(C)cc2)n1` (stereo unspecified), the 90% effect concentration (IC90) amounted to 2.06 µM. Further, the IC50 (PBLUC_HILL_SLOPE 3.18, 2.13, PBLUC_R_SQUARED 0.929, 0.663, read-out: LUCIFERASE INFECTION ASSAY - IC50) came out at 0.807 µM.
In the case of `OCc1ccccc1-c1cn2c(-c3ccc4c(c3)OCO4)cnc2cn1`, the IC90 was greater than 9.56 µM. The IC50 (HEPG2TOX_HILL_SLOPE 2.34, HEPG2TOX_R_SQUARED 0.695, PBLUC_HILL_SLOPE 2.89, PBLUC_R_SQUARED 0.35, read-out: LUCIFERASE INFECTION ASSAY - IC50) was 8.14 µM.
On to `COc1cc2c(cc1OC)C(c1cccs1)N(C(=O)CC1CCCC1)CC2` (stereo unspecified), for which the 90% effect concentration (IC90) was greater than 10 µM. In addition, the IC50 (FFLUC_HILL_SLOPE 12.1, FFLUC_R_SQUARED 0.331, HEPG2TOX_HILL_SLOPE 1.22, HEPG2TOX_R_SQUARED 0.987, PBLUC_HILL_SLOPE 1.62, PBLUC_R_SQUARED 0.49, read-out: LUCIFERASE INFECTION ASSAY - IC50) stood at 2.88 µM.
On to `Cc1ccc(C(=O)/C=C/C(=O)c2ccc(C)cc2)cc1`, for which the 90% effect concentration (IC90) is greater than 10 µM. Further, the IC50 (FFLUC_HILL_SLOPE 1.4, FFLUC_R_SQUARED 0.731, read-out: LUCIFERASE INFECTION ASSAY - IC50) is greater than 10 µM.
As for `c1ccc(-c2nnc3ccc(-c4cccs4)cn23)cc1`, the IC90 is greater than 10 µM. The half-maximal inhibitory concentration (IC50) (HEPG2TOX_HILL_SLOPE 16.6, HEPG2TOX_R_SQUARED 0.17, read-out: LUCIFERASE INFECTION ASSAY - IC50) was greater than 10 µM.
In the case of `O=C(Nc1ccc(Cl)c(C(F)(F)F)c1)C(c1ccccc1)N1CC=C(c2ccccc2)CC1` (stereo unspecified), the IC90 is greater than 10 µM. For the same compound, the IC50 (PBLUC_HILL_SLOPE 3.35, PBLUC_R_SQUARED 0.119, read-out: LUCIFERASE INFECTION ASSAY - IC50) is 7.2 µM.
Take `CNc1snc(C)c1C(=O)OCc1ccc([N+](=O)[O-])cc1`: the IC90 was greater than 10 µM. Further, under setting [1], the half-inhibitory concentration (IC50) is greater than 10 µM.
In the case of `CC(C)c1ccc(/C=C/c2ccc(=O)[nH]n2)cc1`, the 90% effect concentration (IC90) stood at 0.563 µM. In addition, the IC50 (HEPG2TOX_HILL_SLOPE 1.26, HEPG2TOX_R_SQUARED 0.973, PBLUC_HILL_SLOPE 20.6, PBLUC_R_SQUARED 0.746, read-out: LUCIFERASE INFECTION ASSAY - IC50) came to 0.506 µM.
For `Cc1ccc(Cn2ccs/c2=N/C(=O)COC(=O)CCN2C(=O)C3CC=CCC3C2=O)cc1` (stereo unspecified), the IC90 was greater than 10 µM. Further, the IC50 under setting [1] is greater than 10 µM.
As for `c1ccc(Oc2cccc(-c3ccc4ncc(-c5ccoc5)n4n3)c2)cc1`, the IC90 is greater than 10 µM. For the same compound, the IC50 under setting [1] was greater than 10 µM.
Regarding `Cc1cc(NC(=O)c2ccc(C)c(C)c2)n(-c2nc3ccccc3[nH]2)n1`, the IC90 is greater than 9.55 µM. Further, the half-inhibitory concentration (IC50) (PBLUC_HILL_SLOPE 14, PBLUC_R_SQUARED 0.327, read-out: LUCIFERASE INFECTION ASSAY - IC50) worked out at 8.17 µM.
In the case of `CC(=O)c1ccc(C#Cc2ccccc2)s1`, the IC90 was greater than 14.6 µM. Moreover, the IC50 under setting [1] was greater than 14.6 µM.
In the case of `CO[C@H]1[C@H](O)[C@H](O[C@H]2CC[C@]3(C)C4CC[C@]5(C)C(C6=CC(=O)OC6)CC[C@]5(O)C4CC[C@@H]3C2)O[C@@H](C)[C@@H]1O` (stereo partly specified), the IC90 stood at 0.138 µM.

The IC50 is the midpoint of a concentration-inhibition curve. In general, IC90 refers to the point of the concentration-response curve where the effect stands at 90%.
